This assay concerns the target T1, human Bradykinin B1 receptor (Homo sapiens, UniProt P46663).
T1 construct: host or cells: CHO-K1
T1 sequence (P46663 1-353): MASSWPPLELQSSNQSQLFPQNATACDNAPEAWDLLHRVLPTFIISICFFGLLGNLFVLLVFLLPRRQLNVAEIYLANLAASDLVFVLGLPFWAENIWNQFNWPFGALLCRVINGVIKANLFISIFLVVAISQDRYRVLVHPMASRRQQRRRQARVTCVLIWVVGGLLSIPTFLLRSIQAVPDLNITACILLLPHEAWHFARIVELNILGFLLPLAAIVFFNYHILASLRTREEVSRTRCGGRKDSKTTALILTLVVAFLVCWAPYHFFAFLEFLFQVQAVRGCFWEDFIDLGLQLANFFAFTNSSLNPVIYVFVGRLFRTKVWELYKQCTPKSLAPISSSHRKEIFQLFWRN
The assay is described as follows: Calcium flux Assay (FLIPR) with recombinant CHO-K1 cells expressing human Bradykinin B1 receptor, in presence (hB1 IC50) or absence (hB1 free IC50) of 0.1% BSA. The class given is cell-based. (Calcium assays in cells follow changes in intracellular calcium, usually with a dye or a luminescent sensor.)

Setting [1] is: in absence of 0.1% BSA, read-out: hB1 free IC50.
The mark [2] stands for this setting: in presence of 0.1% BSA, read-out: hB1 IC50.

Where two headings read alike, the source gives them in different places.

As usually defined, the IC50 is the concentration at which inhibition is half-maximal. Consider `O=C(Nc1ccc(-n2cnc(C3CCC3)n2)c(-c2nnn[nH]2)c1)C1(c2cccc(Cl)c2)CC1` [Example 357, 1-(3-chlorophenyl)-N-[4-(3-cyclobutyl-1H-1,2,4-triazol-1-yl)-3-(1H-tetrazol-5-yl)phenyl]cyclopro-panecarboxa-mide], for which the IC50 under setting [1] was found to be 44.8 nM.
Consider `COc1ccc(-c2cc(F)c(NC(=O)C3(c4ccc(F)c(Cl)c4)CC3)cc2-c2nnn[nH]2)cc1C` [Example 230, 1-(3-Chloro-4-fluorophenyl)-N-[5-fluoro-4′-methoxy-3′-methyl-2-(1H-tetrazol-5-yl)biphenyl-4-yl]cyclopropane-carboxamide], for which, under setting [2], the half-maximal inhibitory concentration (IC50) came out at 2100 nM.
`Cc1cc(-c2ccc(NC(=O)C3(c4cccc(Cl)c4)CC3)cc2-c2nnn[nH]2)ccn1` [Example 210, 1-(3-chlorophenyl)-N-[4-(2-methylpyridin-4-yl)-3-(1H-tetrazol-5-yl)phenyl] cyclopropane-carboxamide]: the IC50 runs as follows: under setting [1], 131 nM; under setting [2], 78 nM.
On to `CC(C)(C)c1cnn(-c2ccc(NC(=O)C3(c4ccc(OC(F)(F)F)cc4F)CC3)cc2-c2nnn[nH]2)c1` [Example 411, 1-[2-fluoro-4-(trifluoromethoxy)phenyl]-N-[4-(4-tert-butyl-1H-pyrazol-1-yl)-3-(1H-tetrazol-5-yl)phenyl]cyclopro-pranecarboxa-mide], for which the IC50 under setting [1] turned out to be 6.84 nM.
Take `Cc1nc(C(F)(F)F)cn1-c1ccc(NC(=O)C2(c3ccc(OC(F)(F)F)cc3F)CC2)cc1-c1nnn[nH]1` [Example 365, 1-[2-Fluoro-4-(trifluoromethoxy)phenyl]-N-{4-[2-methyl-4-(trifluoromethyl)-1H-imidazol-1-yl]-3-(1H-tetrazol-5-yl)phenyl}cyclopro-panecarboxa-mide]: under setting [1], the half-maximal inhibitory concentration (IC50) amounted to 535 nM.
On to `COc1ccc(-c2ccc(NC(=O)C3(c4ccccc4F)CC3(C)C)cc2-c2nnn[nH]2)cc1OC` (stereo not drawn) [Example 8, N-[3′,4′-dimethoxy-2-(1H-tetrazol-5-yl)biphenyl-4-yl]-1-(2-fluorophenyl)-2,2-dimethylcyclo-propane-carboxamide], for which the IC50 under setting [1] came to 337 nM and the IC50 under setting [2] was found to be 347 nM.
Turning to `O=C(Nc1ccc(-n2cc(Cl)cn2)c(-c2nnn[nH]2)c1)C1(c2cccc(Cl)c2)CC1` [Example 391, 1-(3-chlorophenyl)-N-[4-(4-chloro-1H-pyrazol-1-yl)-3-(1H-tetrazol-5-yl)phenyl]cyclopro-panecarboxa-mide], under setting [1], the 50% inhibitory concentration (IC50) was 1890 nM.
The same measure, in the same setting: next, `COc1cc(-c2ccc(NC(=O)C3(c4ccc(C(F)(F)F)cc4F)CC3)cc2-c2nnn[nH]2)cc(C(F)(F)F)c1` [Example 133, 1-[2-fluoro-4-(trifluoromethyl)phenyl]-N-[3′-methoxy-2-(1H-tetrazol-5-yl)-5′-(trifluoromethyl)biphenyl-4-yl]cyclopropane carboxamide]: 217 nM.
The same measure, in the same setting: next, `CCOc1ccc(-c2ccc(NC(=O)C(C)(C)C)cc2-c2nnn[nH]2)cn1` [Example 309, N-[4-(6-ethoxypyridin-3-yl)-3-(1H-tetrazol-5-yl)phenyl]-2,2-dimethylpropan-amide]: 587 nM.
As for `COc1ccc(-c2ccc(NC(=O)C3(c4cccc(Cl)c4)CC3)cc2-c2nnn[nH]2)cc1C(F)(F)F` [Example 132, 1-(3-chlorophenyl)-N-[4′-methoxy-2-(1H-tetrazol-5-yl)-3′-(trifluoromethyl)biphenyl-4-yl]cyclopropane carboxamide], the 50% inhibitory concentration (IC50) under setting [1] turned out to be 234 nM.
Turning to `O=C(Nc1ccc(-c2cnc(C(F)(F)F)nc2)c(-c2nnn[nH]2)c1)C1(c2cccc(Cl)c2F)CC1` [Example 197, 1-(3-chloro-2-fluorophenyl)-N-{3-(1H-tetrazol-5-yl)-4-[2-(trifluoromethyl)pyrimidin-5-yl]phenyl} cyclopropane-carboxamide], the half-inhibitory concentration (IC50) under setting [1] was 493 nM and the half-inhibitory concentration (IC50) under setting [2] is 993 nM.
For `CC(C)c1cnn(-c2ccc(NC(=O)C3(c4ccc(F)c(F)c4)CC3)cc2-c2nnn[nH]2)c1` [Example 397, 1-(3,4-difluorophenyl)-N-[4-(4-isopropyl-1H-pyrazol-1-yl)-3-(1H-tetrazol-5-yl)phenyl]cyclopro-panecarboxa-mide], under setting [1], the IC50 was found to be 38.5 nM.
